Values after ≈ are worked out from the molar mass of the structure shown. Read-outs that look alike come from different tables or passages of the source.
How the values were obtained:
[1] = tested on: M. tuberculosis H37Rv; test: MIC vs. M. tuberculosis H37Rv, microplate Alamar Blue assay (MABA); assay type: cell-based; details: for MIC / activity vs. M. tuberculosis in words: in vitro
[2] = tested on: J774.1 macrophage cell line; test: Cytotoxicity against J774.1 macrophage cell line; assay type: cell-based, murine; details: J774 cells, read-out: J774 IC50 (toxicity)
[3] = tested on: VERO cells; test: Cytotoxicity against VERO cells (MTS, 72 hours); details: for IC50: read-out: Vero IC50 (toxicity)
[4] = tested on: M. tuberculosis Erdman; assay type: in vivo, BALB/c mice; details: […]; 100 and 200 mg/kg qd (RU60887 100 mg/kg only)
[5] = Table 3, parallel-synthesis carbazate library products
[6] = Table 1a, 11,12-carbamate derivatives, read-out: Anti-TB Activity MIC
[7] = Table 2a, 11,12-diols, read-out: Anti-TB Activity MIC

CC[C@H]1OC(=O)[C@H](C)[C@@H](O[C@H]2CC(C)(OC)[C@@H](O)[C@H](C)O2)[C@H](C)[C@@H](O[C@@H]2O[C@H](C)C[C@H](N(C)C)[C@H]2O)[C@](C)(OC)C[C@@H](C)C(=O)[C@H](C)[C@H]2N(NCc3nc4ccccc4s3)C(=O)O[C@]12C (stereo partly shown) [F7′]
MIC [1, 5]: 16 µM (≈ 15 µg/mL)

CC[C@H]1OC(=O)[C@H](C)[C@@H](O[C@H]2CC(C)(OC)[C@@H](O)[C@H](C)O2)[C@H](C)[C@@H](O[C@@H]2O[C@H](C)C[C@H](N(C)C)[C@H]2O)[C@](C)(OC)C[C@@H](C)C(=O)[C@H](C)[C@H]2N(NCc3csc(-c4ccccc4)n3)C(=O)O[C@]12C (stereo partly shown) [F9′]
MIC [1, 5]: 12.6 µM (≈ 12.1 µg/mL)

CC[C@H]1OC(=O)[C@H](C)[C@@H](O[C@H]2CC(C)(OC)[C@@H](O)[C@H](C)O2)[C@H](C)[C@@H](O[C@@H]2O[C@H](C)C[C@H](N(C)C)[C@H]2O)[C@](C)(OC)C[C@@H](C)C(=O)[C@H](C)[C@H]2N(NCc3cc(Br)cs3)C(=O)O[C@]12C (stereo partly shown) [F11′]
MIC [1, 5]: 12.7 µM (≈ 12.2 µg/mL)

CC[C@H]1OC(=O)[C@H](C)[C@@H](O[C@H]2CC(C)(OC)[C@@H](O)[C@H](C)O2)[C@H](C)[C@@H](O[C@@H]2O[C@H](C)C[C@H](N(C)C)[C@H]2O)[C@](C)(OC)C[C@@H](C)C(=O)[C@H](C)[C@H]2N(NCc3cc4ccccc4s3)C(=O)O[C@]12C (stereo partly shown) [G2′]
MIC [1, 5]: 11 µM (≈ 10.3 µg/mL)

CC[C@H]1OC(=O)[C@H](C)[C@@H](O[C@H]2CC(C)(OC)[C@@H](O)[C@H](C)O2)[C@H](C)[C@@H](O[C@@H]2O[C@H](C)C[C@H](N(C)C)[C@H]2O)[C@](C)(OC)C[C@@H](C)C(=O)[C@H](C)[C@H]2N(NCc3sccc3Oc3ccccc3)C(=O)O[C@]12C (stereo partly shown) [G4′]
MIC [1, 5]: 13 µM (≈ 12.7 µg/mL)

CC[C@H]1OC(=O)[C@H](C)[C@@H](O[C@H]2CC(C)(OC)[C@@H](O)[C@H](C)O2)[C@H](C)[C@@H](O[C@@H]2O[C@H](C)C[C@H](N(C)C)[C@H]2O)[C@](C)(OC)C[C@@H](C)C(=O)[C@H](C)[C@H]2N(NCC3=Cc4ccccc4OC3)C(=O)O[C@]12C (stereo partly shown) [G6′]
MIC [1, 5]: 11 µM (≈ 10.3 µg/mL)

CC[C@H]1OC(=O)[C@H](C)[C@@H](O[C@H]2CC(C)(OC)[C@@H](O)[C@H](C)O2)[C@H](C)[C@@H](O[C@@H]2O[C@H](C)C[C@H](N(C)C)[C@H]2O)[C@](C)(OC)C[C@@H](C)C(=O)[C@H](C)[C@H]2N(NCc3cc(Cl)cc(Br)c3O)C(=O)O[C@]12C (stereo partly shown) [G8′]
MIC [1, 5]: 14 µM (≈ 14.1 µg/mL)

CC[C@H]1OC(=O)[C@H](C)[C@@H](O[C@H]2CC(C)(OC)[C@@H](O)[C@H](C)O2)[C@H](C)[C@@H](O[C@@H]2O[C@H](C)C[C@H](N(C)C)[C@H]2O)[C@](C)(OC)C[C@@H](C)C(=O)[C@H](C)[C@H]2N(NCC3CSN=N3)C(=O)O[C@]12C (stereo partly shown) [G10′]
MIC [1, 5]: >16 µM

CC[C@H]1OC(=O)[C@H](C)[C@@H](O[C@H]2CC(C)(OC)[C@@H](O)[C@H](C)O2)[C@H](C)[C@@H](O[C@@H]2O[C@H](C)C[C@H](N(C)C)[C@H]2O)[C@](C)(OC)C[C@@H](C)C(=O)[C@H](C)[C@H]2N(NCc3ccc(N4CCC(c5ccccc5OC)CC4)c([N+](=O)[O-])c3)C(=O)O[C@]12C (stereo partly shown) [G12′]
MIC [1, 5]: 19 µM (≈ 21.1 µg/mL)

CC[C@H]1OC(=O)[C@H](C)[C@@H](O[C@H]2CC(C)(OC)[C@@H](O)[C@H](C)O2)[C@H](C)[C@@H](O[C@@H]2O[C@H](C)C[C@H](N(C)C)[C@H]2O)[C@](C)(OC)C[C@@H](C)C(=O)[C@H](C)[C@H]2N(NCc3c(Cl)cccc3Cl)C(=O)O[C@]12C (stereo partly shown) [H1′]
MIC [1, 5]: 11 µM (≈ 10.4 µg/mL)

CC[C@H]1OC(=O)[C@H](C)[C@@H](O[C@H]2CC(C)(OC)[C@@H](O)[C@H](C)O2)[C@H](C)[C@@H](O[C@@H]2O[C@H](C)C[C@H](N(C)C)[C@H]2O)[C@](C)(OC)C[C@@H](C)C(=O)[C@H](C)[C@H]2N(NCc3cccc4nsnc34)C(=O)O[C@]12C (stereo partly shown) [H3′]
MIC [1, 5]: >22 µM

CC[C@H]1OC(=O)[C@H](C)[C@@H](O[C@H]2CC(C)(OC)[C@@H](O)[C@H](C)O2)[C@H](C)[C@@H](O[C@@H]2O[C@H](C)C[C@H](N(C)C)[C@H]2O)[C@](C)(OC)C[C@@H](C)C(=O)[C@H](C)[C@H]2N(NCc3ccc4c(c3)nnn4C)C(=O)O[C@]12C (stereo partly shown) [H7′]
MIC [1, 5]: >22 µM

CCC1OC(=O)C(C)C(OC2CC(C)(OC)C(O)C(C)O2)C(C)C(OC2OC(C)CC(N(C)C)C2O)C(C)(OC)CC(C)C(=O)C(C)C2N(N=CC3=C(Cl)c4cc(F)ccc4OC3)C(=O)OC12C (stereo not shown) [H9′]
MIC [1, 5]: ?3 μM

CC[C@H]1OC(=O)[C@H](C)[C@@H](O[C@H]2CC(C)(OC)[C@@H](O)[C@H](C)O2)[C@H](C)[C@@H](O[C@@H]2O[C@H](C)C[C@H](N(C)C)[C@H]2O)[C@](C)(OC)C[C@@H](C)C(=O)[C@H](C)[C@H]2N(NCc3c(Sc4ccc(Cl)cc4)nc4sccn34)C(=O)O[C@]12C (stereo partly shown) [H11′]
MIC [1, 5]: 35.4 µM (≈ 37.8 µg/mL)

CO[C@H]1/C=C/O[C@@]2(C)Oc3c(C)c(O)c4c(O)c(c(/C=N/N5CCN(C)CC5)c(O)c4c3C2=O)NC(=O)/C(C)=C\C=C\[C@H](C)[C@H](O)[C@@H](C)[C@@H](O)[C@@H](C)[C@H](OC(C)=O)[C@@H]1C [RMP, Rifampin, reference compound]
MIC ([1]; Mycobacterium tuberculosis, H37RV, Table 1a, 11,12-carbamate derivatives, read-out: Anti-TB Activity MIC): 0.076 µM (≈ 0.0625 µg/mL) | IC50 ([2]; Mus musculus, J774.1, Table 1a): 32.7 µM | IC50 ([3]; Chlorocebus sabaeus, Vero): 46.7 µM

CCC1OC(=O)C(C)(F)C(=O)C(C)C(OC2OC(C)CC(N(C)C)C2O)C(C)(OC)CC(C)C(=O)C(C)C2N(NCCCc3ccnc4ccccc34)C(=O)OC12C (stereo not shown) [RU3562]
MIC [1, 6]: 16 µM (≈ 13 µg/mL)

CC[C@H]1OC(=O)[C@H](C)[C@@H](O[C@H]2C[C@@](C)(OC)[C@@H](O)[C@H](C)O2)[C@H](C)[C@@H](O[C@@H]2O[C@H](C)C[C@H](N(C)C)[C@H]2O)[C@](C)(O)C[C@@H](C)/C(=N\OCOCc2ccccc2)[C@H](C)[C@@H](O)[C@]1(C)O [RU29558]
MIC [1, 7]: 7 µM (≈ 6.08 µg/mL) | IC50 ([3]; Table 2a, Vero cells): 28.2 µM

CC[C@H]1OC(=O)[C@H](C)C(=O)[C@H](C)[C@@H](O[C@@H]2O[C@H](C)C[C@H](N(C)C)[C@H]2O)[C@](C)(OC)C[C@@H](C)C(=NOCOCCOC)[C@H](C)[C@@H](O)[C@]1(C)O [RU54615]
MIC [1, 7]: >128 µM

CC[C@H]1OC(=O)[C@H](C)C(=O)[C@H](C)[C@@H](O[C@@H]2O[C@H](C)C[C@H](N(C)C)[C@H]2O)[C@](C)(OC)C[C@@H](C)C(=O)[C@H](C)[C@@H](O)[C@]1(C)O [RU56006]
MIC [1, 7]: >128 µM

CCCCCCCCCCN1CCCC(O/N=C2\[C@H](C)C[C@@](C)(OC)[C@H](O[C@@H]3O[C@H](C)C[C@H](N(C)C)[C@H]3O)[C@@H](C)C(=O)[C@@H](C)C(=O)O[C@H](CC)[C@@](C)(O)[C@H](O)[C@H]2C)C1 (stereo partly shown) [RU60887]
MIC ([1]; Mycobacterium tuberculosis, H37RV, Table 2a, 11,12-diols, read-out: Anti-TB Activity MIC): 0.125 µM (≈ 0.103 µg/mL) | MIC ([1]; Mycobacterium tuberculosis, H37RV, read-out: minimum inhibitory concentration (MIC) against M. tuberculosis): 0.12 µM (≈ 0.0991 µg/mL) | MIC / activity vs. M. tuberculosis in words [1]: very low | IC50 ([2]; Mus musculus, J774.1, Table 2a): 4.7 µM | activity against M. tuberculosis in the acute phase of infection [4]: less activity | IC50 ([3]; Chlorocebus sabaeus, Vero): 27.6 µM | toxicity / cytotoxicity in words ([3]; in vitro study): comparable to clarithromycin

CC[C@H]1OC(=O)[C@H](C)C(=O)[C@H](C)[C@@H](O[C@@H]2O[C@H](C)C[C@H](N(C)C)[C@H]2O)[C@](C)(OC)C[C@@H](C)C(=O)[C@H](C)[C@H]2N(CCCCn3ccnc3)C(=O)O[C@]12C [RU61205]
MIC [1, 6]: 112 µM (≈ 82.3 µg/mL)

CC[C@H]1OC(=O)[C@H](C)C(=O)[C@H](C)[C@@H](O[C@@H]2O[C@H](C)C[C@H](N(C)C)[C@H]2O)[C@](C)(OC)C[C@@H](C)C(=NOC2CCCN(C/C=C/c3ccc(-c4ccccc4)cc3)C2)[C@H](C)[C@@H](O)[C@]1(C)O (stereo partly shown) [RU61804]
MIC [1, 7]: 0.5 µM (≈ 0.439 µg/mL) | IC50 ([2]; Table 2a): 3.9 µM | IC50 ([3]; Table 2a, Vero cells): 9.12 µM

CC[C@H]1OC(=O)[C@H](C)[C@@H](O[C@H]2CC(C)(OC)[C@@H](O)[C@H](C)O2)[C@H](C)[C@@H](O[C@@H]2O[C@H](C)C[C@H](N(C)C)[C@H]2O)[C@](C)(OC)C[C@@H](C)C(=O)[C@H](C)[C@H]2N(CCCCc3ccnc4ccccc34)C(=O)O[C@]12C (stereo partly shown) [RU66080]
MIC [1, 6]: 0.44 µM (≈ 0.421 µg/mL) | IC50 ([2]; Table 1a): 4.95 µM | IC50 ([3]; Table 1a, Vero cells): 8.1 µM

CC[C@H]1OC(=O)[C@H](C)C(=O)[C@H](C)[C@@H](O[C@@H]2O[C@H](C)C[C@H](N(C)C)[C@H]2O)[C@](C)(OC)C[C@@H](C)C(=O)[C@H](C)[C@H]2N(CCCn3cnc4c3c(=O)n(C)c(=O)n4C)C(=O)O[C@]12C [RU66740]
MIC [1, 6]: >128 µM

CC[C@H]1OC(=O)[C@H](C)C(=O)[C@H](C)[C@@H](O[C@@H]2O[C@H](C)C[C@H](N(C)C)[C@H]2O)[C@](C)(OC)C[C@@H](C)C(=O)[C@H](C)[C@H]2N(NCCc3ccccc3)C(=O)O[C@]12C [RU70645]
MIC [1, 6]: 14 µM (≈ 10.2 µg/mL)

CC[C@H]1OC(=O)[C@H](C)C(=O)[C@H](C)[C@@H](O[C@@H]2O[C@H](C)C[C@H](N(C)C)[C@H]2O)[C@](C)(OC)C[C@@H](C)C(=O)[C@H](C)[C@H]2N(CCCCn3cnc(-c4cccnc4)c3)C(=O)O[C@]12C [Telithromycin, reference compound]
MIC [1, 6]: 48 µM (≈ 39 µg/mL) | MIC / activity vs. M. tuberculosis in words [1]: even less active than clarithromycin

cethromycin [ABT773, reference compound]
MIC against M. tuberculosis [1]: 3 µM | MIC [1, 6]: 3 µM | IC50 ([3]; Table 1a, Vero cells): > 105 µM

Source: patent publication US20050014706A1, “Method of treating tuberculosis” (priority 2003, published 2005)
